From US5604253A, “N-benzylindol-3-yl propanoic acid derivatives as cyclooxygenase inhibitors” (priority 1995, dated 1997)
Where two headings read alike, the source gives them in different places.

Key:
[1] = system: Rat Paw Edema; experiment: Rat paw edema assay (carrageenan); format: in vivo, Sprague-Dawley rat
Experimental: Male Sprague-Dawley rats (150-200 g) are fasted overnight and are given po either vehicle (1% methocel or 5% Tween 80) or a test compound. One hr later, a line is drawn using a permanent marker at the level above the ankle in one hind paw to define the area of the paw to be monitored. The paw volume (V0) is measured using a plethysmometer (Ugo-Basile, Italy) based on the principle of water displacement. The animals are then injected subplantarly with 50 μl of 1% carrageenan solution in saline (FMC Corp, Maine) into the paw using an insulin syringe with a 25-gauge needle (i.e., 500 μg carrageenan per paw). Three hr later, the paw volume (V3) is measured and the increases in paw volume (V3 -V0) are calculated. The animals are sacrificed by CO2 asphyxiation and the absence or presence of stomach lesions scored. Data is compared with the vehicle-control values and percent inhibition calculated. All treatment groups are coded to eliminate observer bias.

[2] = biological target: cyclooxygenase-1 (Homo sapiens, UniProt P23219); experiment: cell-based; settings: PGE2 production, human U-937 cells, 10 μM arachidonic acid; read-out: Cox-1 IC50
Experimental: (§1) Compounds were tested as inhibitors of cyclooxygenase activity in whole cell cyclooxygenase assays. Both of these assays measured prostaglandin E2 synthesis in response to arachidonic acid, using a radioimmunoassay. Cells used for these assays were human osteosarcoma 143 cells (which specifically express cyclooxygenase-2) and human U-937 cells (which specifically express cyclooxygenase-1). In these assays, 100% activity is defined as the difference between prostaglandin E2 synthesis in the absence and presence of arachidonate addition.
(§2) For cyclooxygenase assays, osteosarcoma cells are cultured in 1 mL of media in 24-well multidishes (Nunclon) until confluent (1-2×10^5 cells/well). U-937 cells are grown in spinner flasks and resuspended to a final density of 1.5×10^6 cells/mL in 24-well multidishes (Nunclon). Following washing and resuspension of osteosarcoma and U-937 cells in 1 mL of Hanks balanced salts solution (HBSS), 2 μL of a DMSO solution of test compound or DMSO vehicle is added, and samples gently mixed. All assays are performed in triplicate. Samples are then incubated for 5 or 15 minutes at 37° C., prior to the addition of arachidonic acid. Arachidonic acid (peroxide-free, Cayman Chemical) is prepared as a 10 mM stock solution in ethanol and further diluted 10-fold in HBSS. An aliquot of 10 μL of this diluted solution is added to the cells to give a final arachidonic acid concentration of 10 μM. Control samples are incubated with ethanol vehicle instead of arachidonic acid. Samples are again gently mixed and incubated for a further 10 min at 37° C. For osteosarcoma cells, reactions are then stopped by the addition of 100 μL of 1N HCl, with mixing and by the rapid removal of the solution from cell monolayers. For U-937 cells, reactions are stopped by the addition of 100 μL of 1N HCl, with mixing. Samples are then neutralized by the addition of 100 μL of 1N NaOH and PGE2 levels measured by radioimmunoassay.
(§3) In the assay, inhibition is determined by measuring the amount of prostaglandin E2 (PGE2) synthesized in the presence of arachidonic acid, cyclooxygenase-1 or cyclooxygenase-2 and a putative inhibitor.

[3] = biological target: T1, cyclooxygenase-2 (Homo sapiens, UniProt P35354); experiment: cell-based; settings: PGE2 production, human osteosarcoma 143 cells, 10 μM arachidonic acid; read-out: Cox-2 IC50
T1 sequence (P35354 18-604): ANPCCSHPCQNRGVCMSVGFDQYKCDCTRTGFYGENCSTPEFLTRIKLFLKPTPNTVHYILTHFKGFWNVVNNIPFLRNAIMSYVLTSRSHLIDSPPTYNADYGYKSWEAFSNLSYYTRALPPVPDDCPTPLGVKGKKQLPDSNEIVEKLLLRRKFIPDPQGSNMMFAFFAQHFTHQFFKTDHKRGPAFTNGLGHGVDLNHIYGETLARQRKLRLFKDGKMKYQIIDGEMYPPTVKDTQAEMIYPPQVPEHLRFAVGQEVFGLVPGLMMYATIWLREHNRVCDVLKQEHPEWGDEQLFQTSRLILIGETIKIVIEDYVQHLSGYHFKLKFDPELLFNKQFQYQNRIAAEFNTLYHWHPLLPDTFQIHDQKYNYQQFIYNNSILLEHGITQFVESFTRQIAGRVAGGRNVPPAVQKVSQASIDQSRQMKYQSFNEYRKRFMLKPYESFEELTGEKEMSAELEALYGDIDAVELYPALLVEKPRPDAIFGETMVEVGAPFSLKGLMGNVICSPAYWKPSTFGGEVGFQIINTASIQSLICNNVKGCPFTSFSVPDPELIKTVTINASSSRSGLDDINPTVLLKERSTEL
Experimental: as §1, §2, §3

[4] = edema inhibition, rat, po 1 hr before carrageenan, paw volume at 3 hr, read-out: ED30

Chain of cyclooxygenase-1 (P23219 24-599): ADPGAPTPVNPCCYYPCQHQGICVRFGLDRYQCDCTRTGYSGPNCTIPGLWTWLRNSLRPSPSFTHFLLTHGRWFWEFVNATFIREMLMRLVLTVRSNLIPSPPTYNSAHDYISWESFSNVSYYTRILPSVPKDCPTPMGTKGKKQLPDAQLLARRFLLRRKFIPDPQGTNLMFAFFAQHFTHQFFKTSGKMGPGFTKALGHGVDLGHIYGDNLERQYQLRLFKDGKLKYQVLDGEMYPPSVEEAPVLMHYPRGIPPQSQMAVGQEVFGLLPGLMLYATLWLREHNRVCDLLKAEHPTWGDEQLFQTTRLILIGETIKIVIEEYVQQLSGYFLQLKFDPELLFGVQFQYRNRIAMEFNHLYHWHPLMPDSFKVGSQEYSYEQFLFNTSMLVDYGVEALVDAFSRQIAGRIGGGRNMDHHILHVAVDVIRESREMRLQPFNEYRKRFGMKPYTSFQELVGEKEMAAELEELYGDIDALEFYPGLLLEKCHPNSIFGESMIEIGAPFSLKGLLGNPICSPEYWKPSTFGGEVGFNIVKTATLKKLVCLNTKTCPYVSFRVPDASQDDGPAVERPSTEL

Compound | ED30 ([1]; Rattus norvegicus, po, 3 h) [mg/kg] | IC50 [2] [nM] | IC50 [3] [nM] | ED30 [1, 4] [mg/kg]
COc1ccc2c(c1)c(C(C)CC(=O)[O-])c(C)n2Cc1ccc(Br)cc1.[Na+] (racemic) | 0.7 | – | – | –
COc1ccc2c(c1)c(C(C)CC(=O)[O-])c(C)n2Cc1ccc(Br)cc1.[Na+] (racemic) [sodium salt] | – | > 10000 | 4 | –
COc1ccc2c(c1)c([C@@H]1C[C@H]1C(=O)[O-])c(C)n2Cc1ccc(Br)cc1.[Na+] (relative stereo) | 0.6 | – | – | –
COc1ccc2c(c1)c([C@@H]1C[C@H]1C(=O)[O-])c(C)n2Cc1ccc(Br)cc1.[Na+] (relative stereo) [sodium salt] | – | > 10000 | 46 | –
COc1ccc2c(c1)c(CC(=O)O)c(C)n2C(=O)c1ccc(Cl)cc1 [Indomethacin, reference compound] | – | – | – | 0.9
COc1ccc2c(c1)c(C(C)C(=O)O)c(C)n2Cc1ccc(Cl)cc1 (stereo not drawn) [MK-555, α-(1-p-chlorobenzyl-2-methyl-5-methoxy-3-indolyl)propionic acid, reference compound] | – | – | – | 3
